Data set [1] in a line: Measurement of optophysical properties (absorbance, fluorescence emission, quantum yield, pH dependence). It is filed as physicochemical. The conditions noted are these: for Abs λMax / Em λMax / QY (quantum yield) / ε (extinction coefficient): pH 7.4. The protocol:
Measurement of optophysical properties: Absorbance and fluorescence emission spectra of the series of NIR fluorophores were measured using fiber optic HR2000 absorbance (200-1100 nm) and USB2000FL fluorescence (350-1000 nm) spectrometers (Ocean Optics, Dunedin, FL). NIR excitation was provided by a 655 nm red laser pointer (Opcom Inc., Xiamen, China) set to 5 mW and coupled through a 300 μm core diameter, NA 0.22 fiber (Fiberguide Industries, Stirling, NJ). To determine the pH dependence of the fluorescence signal, optical measurements were performed at 37° C. in PBS, pH 4.0-7.4 or 100% FBS buffered with 50 mM HEPES, pH 4.0-7.4. The pH of the solutions was adjusted as appropriate with NaOH and HCl using a pH spear tester (Thermo Scientific). For fluorescence quantum yield (QY) measurements, indocyanine green (ICG) in DMSO (QY=13%) was used as a calibration standard to measure the fluorescence QY under conditions of matched absorbance at 765 nm. In silico calculations of the partition coefficient (LogP and LogD at pH 7.4), surface molecular charge, hydrophobicity, hydrogen bond acceptors/donors (HBA/HBD), the acid dissociation constant (pKa), and topological polar surface area (TPSA) were calculated using Marvin and JChem calculator plugins (ChemAxon, Budapest, Hungary). Theoretical calculations of HOMO and LUMO energy levels of fluorophores were performed based on density functional theory (DFT) with a 6-311 G basis set using Spartan 18 software (Wavefunction, Irvine, CA). […]

The test system of another data set is ID8 cells. The data set can be described thus: Subcellular localization (co-localization with MitoTracker, LysoTracker, NucBlue). Format: cell-based, murine. The conditions noted are these: 10 μM, 30 min incubation. As to the method: FIG. 3 Subcellular localization of pH sensing NIR fluorophores: (a) Subcellular localization of each probe (10 μM) in ID8 cells was determined after 30 min of incubation at 37° C. Nuclei, mitochondria, and lysosomes were stained with NucBlue, MitoTracker Green, or LysoTracker Red, respectively. Representative fluorescence images of cells. Scale bar=20 μm. (b) Co-localization index of each probe with MitoTracker Green or LysoTracker Red. The index was calculated by dividing the area of overlap between pH probe and MitoTracker or LysoTracker by the total area of MitoTracker or LysoTracker, respectively. The co-localization index was determined in 5-6 photographic areas (70×92 μm^2 each) for each probe. *P<0.05 by two-way ANOVA followed by Tukey's multiple comparisons test. Error bars show means±s.d.
Live-cell labeling and in vitro imaging: Murine ovarian cancer cells (ID8 cells) were obtained from Dr. Wang's lab in the Vincent Center for Reproductive Biology at Massachusetts General Hospital (MGH). Cells were cultured and maintained in Dulbecco's modified Eagle's medium (DMEM) supplemented with 4% FBS (Gibco, Grand Island, NY), 1% insulin-transferrin-selenium (Sigma-Aldrich), and 1% penicillin-streptomycin (Gibco). Cells were plated in a T-75 culture flask until 70% confluency before dividing for the next passage. For fluorophore binding affinity, ID8 cells were incubated at a density of 20,000 cells/well in a 24-well plate in a humidified incubator at 37° C. under 5% CO2 in the air. Cells were then incubated at 37° C. for 30 min in the presence of 0.2 μM of PH03 or PH08 and phenol red-free Hank's balanced salt solution (HBSS) with or without 10% FBS. […] Image acquisition and analysis were performed using IPLab software (Scanalytics, Fairfax, VA), and the fluorescent intensity of each cell was measured using ImageJ (National Institutes of Health, Bethesda, MD). The outline of each cell was determined on a phase-contrast image to specify the region of interest (ROI) and superimposed on a fluorescence image for measurements. All NIR fluorescence images for each fluorophore were normalized identically for all conditions during an experiment. […]
Subcellular distribution of pH sensing NIR fluorophores: To investigate the fate of the NIR fluorophores after uptake by cells, we performed in vitro live-cell imaging and evaluated subcellular localization of the NIR fluorophores in cultured ID8 ovarian cancer cells. PH03 and PH08 were incubated with ID8 cells for 30 min followed by double staining with commercially available MitoTracker or LysoTracker Green and imaged under the house-built NIR fluorescence microscope. […]

For the compound `CCN1/C(=C/C=C2\CCCC(/C=C/C3=[N+](CC)c4ccccc4C3(C)C)=C2N2CCNCC2)C(C)(C)c2ccccc21` [PH08], in data set [1], the “optical response to pH” value was “increases its fluorescence in mildly acidic conditions between pH 7.0 and 4.0”; the “Abs λMax” value is recorded as 710 nm; the “Em λMax” value worked out at 794 nm; the “QY (quantum yield)” value is reported as 16.0%. For the same compound, the “ε (extinction coefficient)” value in data set [1] is 43,800 M^−1cm^−1. Besides, the “absorbance wavelength before red-shift” value in data set [1] (neutral pH (7.4)) turned out to be 710 nm. Besides, the “molecular absorbance ε at 760 nm” value in data set [1] (neutral pH condition (pH=7.4)) is listed as 92,600 M^−1 cm^−1. Further, the “absorbance wavelength after red-shift” value in data set [1] (pH 4.0) is 765 nm. For the same compound, the “molecular absorbance ε at 760 nm” value in data set [1] (pH decreases to 4.0) is on record as 134,500 M^−1 cm^−1. Further, in the data set on ID8 cells, the “overlap of fluorescence signal with LysoTracker (lysosome)” value is on record as 71.83% and the “overlap of fluorescence signal with MitoTracker (mitochondria)” value is reported as 83.05%.
On to `CCN1/C(=C/C=C2\CCCC(/C=C/C3=[N+](CC)c4ccccc4C3(C)C)=C2c2ccccc2)C(C)(C)c2ccccc21` [PH03, 1-Ethyl-2-((E)-2-((E)-6-(2-((E)-1-ethyl-3,3-dimethylindolin-2-ylidene)ethylidene)-3,4,5,6-tetrahydro-[1,1′-biphenyl]-2-yl)vinyl)-3,3-dimethyl-3H-indol-1-ium iodide], for which, in data set [1], the “optical response to pH” value is “little to no change in response to pH”, the “Abs λMax” value is listed as 765 nm, the “Em λMax” value came out at 785 nm and the “QY (quantum yield)” value was 21.7%. For the same compound, the “ε (extinction coefficient)” value in data set [1] is given as 364,800 M^−1cm^−1. Also, in the data set on ID8 cells, the “overlap of fluorescence signal with LysoTracker (lysosome)” value worked out at 34.93% and the “overlap of fluorescence signal with MitoTracker (mitochondria)” value worked out at 91.47%.

For the origin of these results see patent US20250144250A1, “PH-SENSITIVE FLUOROPHORES” (The General Hospital Corporation, priority 2022, published 2025).
